In BigSolDB 2.1:

CCOC(=O)C1(c2ccccc2)CCN(CCC(C#N)(c2ccccc2)c2ccccc2)CC1
solubility (mole fraction)
Details | in acetone | in acetonitrile | in ethanol | in isopropanol | in methanol | in water
293.15 K | 0.00426 | 0.00427 | 0.00169 | 0.000258 | 0.00598 | 8.6e-06
298.15 K | 0.00479 | 0.005 | 0.00198 | 0.000442 | 0.00791 | 1.19e-05
303.15 K | 0.00559 | 0.00601 | 0.0023 | 0.000627 | 0.0105 | 1.45e-05
308.15 K | 0.00608 | 0.00727 | 0.0027 | 0.000859 | 0.0123 | 1.96e-05
313.15 K | 0.00664 | 0.00919 | 0.00325 | 0.00108 | 0.0144 | 2.7e-05
318.15 K | 0.00776 | 0.0124 | 0.00432 | 0.00156 | 0.0184 | 3.28e-05
